Measurements taken from patent publication US8445444B2, “Compositions and methods for diagnosing, treating, and preventing prostate conditions” (Phigenix, Inc., priority 2007, dated 2013).

Tests used:
[1] = test system: DU145; assay: Annexin V-FITC/propidium iodide flow cytometry; format: cell-based, human
Description: (§1) Flow Cytometry: PC3 and DU145 cells co-transfected with the DEFB1 expression system were grown in 60-mm dishes and induced for 12, 24, and 48 hours with 10 μM Ponasterone A. Following each incubation period, the medium was collected from the plates (to retain any detached cells) and combined with PBS used to wash the plates. The remaining attached cells were harvested by trypsinization and combined with the detached cells and PBS. The cells were then pelleted at 4° C. (500×g) for 5 min, washed twice in PBS, and resuspended in 100 ul of 1× Annexin binding buffer (0.1 M Hepes/NaOH at pH 7.4, 1.4 M NaCl, 25 mM CaCl2) containing 5 μl of Annexin V-FITC and 5 μl of PI. The cells were incubated at RT for 15 min in the dark, then diluted with 400 μl of 1× Annexin binding buffer and analyzed by FACscan (Becton Dickinson, San Jose, Calif.). All reactions were performed three times.
(§2) Flow cytometry: PC3 and DU145 cells transfected with the hBD-1 expression system were grown in 60-mm dishes and induced for 12, 24, and 48 h with 10 μM Pon A. Following each incubation period, the medium was collected from the plates (to retain any detached cells) and combined with PBS used to wash the plates. The remaining attached cells were harvested by trypsinization and combined with the detached cells and PBS. The cells were then pelleted at 4° C. (500×g) for 5 min, washed twice in PBS, and resuspended in 100 μl, of 1× Annexin binding buffer (0.1 M Hepes/NaOH at pH 7.4, 1.4 M NaCl, 25 mM CaCl2) containing […] Annexin V-FITC and 5 μl of PI. The cells were incubated at RT for 15 min in the dark, then diluted with 400 μl of 1× Annexin binding buffer and analyzed by FACscan (Becton Dickinson, San Jose, Calif.). All reactions were performed three times.

[2] = test system: PC3; assay: Annexin V-FITC/propidium iodide flow cytometry; format: cell-based, human
Description: as §1, §2

Substance: DEFB1: human beta defensin-1 expressed from the ecdysone inducible pIND/DEFB1 construct, induced with Ponasterone A (DHYNCVSSGGQCLYSACPIFTKIQGTCYRGKAKCCK; UniProt P60022 33-68, looked up)
- number of apoptotic cells (lower and upper right quadrants) ([1]; DU145, 12 h DEFB1 (hBD-1) induction): 12%
- number of apoptotic cells (lower and upper right quadrants) ([1]; DU145, 24 h): 34%
- number of apoptotic cells (lower and upper right quadrants) ([1]; DU145, 48 h): 59%
- number of apoptotic cells (lower and upper right quadrants) ([2]; PC3, 12 h DEFB1 (hBD-1) induction): 10%
- number of apoptotic cells (lower and upper right quadrants) ([2]; PC3, 24 h): 20%
- number of apoptotic cells (lower and upper right quadrants) ([2]; PC3, 48 h): 44%
